Measured values from a melting point compilation (Tetko et al.; mined from patent text by program, amines drawn as free bases though some values may be those of a salt).
Starred links: 1 amine or outer side, 2 acyl side, 3 side chain; linkers in the order of their positions; H or OH if unused. Residues, ends and D or L forms follow the SMILES beside them. *: point of attachment. 4Abz = Nc1ccc(C(=O)O)cc1; CO = O=C([*:1])[*:2]; CF3 = FC(F)(F)*

| SMILES | melting point |
| --- | --- |
| CCCCc1ccc2oc(=O)c(=O)oc2c1 | 88 to 93 °C |
| CCCC1(CC(=O)O)OCCc2c1[nH]c1c(C)ccc(C(=O)NC)c21 (centres undefined) | 89 to 91 °C |
| COC(=O)C[C@H](O)C[C@H](O)CCc1c(-c2ccc(F)cc2)c(-c2ccccc2)c(C(=O)NCc2ccc(F)cc2)n1C(C)C | 49 to 50 °C |
| CN(C)C(c1cccc(F)c1)C1CCC(=O)CC1 (centres undefined) | 72 to 75 °C |
| Cc1c(O)ccc2c1CCCC2=O | 195 to 197 °C |
| CS(=O)(=O)c1ccc2c([N+](=O)[O-])cc3c(c2c1)C(CCl)CN3 (centres undefined) | 193 to 194 °C |
| Cn1nc(C#N)c(Nc2ccc(C(F)(F)F)cc2[N+](=O)[O-])n1 | 116 to 117 °C |
| CCOc1ccc([N+](=O)[O-])c(F)c1 | 48 °C |
| CON1C(=O)CC12C=CC(=O)C=C2 | 107 to 109 °C |
| CC(C)=NOCc1nc2c(N)nc3cccnc3c2n1CCCNC(=O)C(C)C | 195 to 197 °C |
| CC(=C(c1ccccc1)c1ccccc1)P(C(C)(C)C)C(C)(C)C | 130 to 133 °C |
| Cc1ccc(-c2nc(CCl)co2)s1 | 84 to 85 °C |
| Cc1ccc(O)c(C(=O)C2CC2)c1 | 66 to 68 °C |
| Cc1cc(C#N)nc(Cl)n1 | 57 °C |
| O=C1C(Cl)=C(c2ccccc2)C(=O)N1c1ccccc1 | 82 to 83 °C |
| C=C(CC(N)C(=O)OCC)CC(NC=O)(C(=O)OCC)C(=O)OCC (centres undefined) | 50 °C |
| CCCC(=CC=CC(C)=CC(=O)O)c1cc(C(C)(C)C)cc(C(C)(C)C)c1 | 143 to 144 °C |
| COc1c(O)c(C(C)=O)c(OC)c2c1OCC2 | 100 to 101 °C |
| CCOCOCCCc1ccc(C(=O)O)cc1C12CC3CC(CC(C3)C1)C2 | 115 °C |
| OCc1cn2c(n1)CN=C(c1ccccn1)c1cc(Br)ccc1-2 | 176 to 178 °C |

| SMILES | melting point |
| --- | --- |
| Fc1ccc(-c2ccn(C3CCCNC3)c2-c2ccncc2)cc1 (centres undefined) | 189 to 191 °C |
| COc1ccc(C(C)CNC(=O)C(N)=O)cc1OC1CCCC1 (centres undefined) | 175 to 176 °C |
| CCCc1c(OCCOCCOCCOc2c(C(C)=O)ccc(OCC(=O)O)c2CCC)ccc(C(C)=O)c1O | 74 to 77 °C |
| CC(C)(C)C(=O)c1ccc(C(=O)O)cc1 | 160 to 162 °C |
| O=C(O)c1ccc(C#CC2(O)CN3CCC2CC3)cc1 (centres undefined) | 288 to 290 °C |
| CC(=O)N(C)c1cccc(-c2ccnc3c(C(=O)c4ccccc4)cnn23)c1 | 162 to 164 °C |
| C=CCc1c(OCC(O)CSCCO)ccc(C(C)=O)c1O (centres undefined) | 54 to 56 °C |
| O=C(O)c1cc2c(s1)CCc1ccccc1-2 | 205 to 208 °C |
| CCOC(=O)c1c(C(F)(F)F)nc(OCC)c(C(=O)OC)c1OCC | 46 to 48 °C |
| CCCCCCCCCCC[C@@H](C[C@@H]1OC(=O)[C@H]1CCCCCC)OC(=O)[C@H](CC(C)C)NC=O | 44 to 45 °C |
| c1ccc(Sc2cc(Sc3ccccc3)ncn2)cc1 | 117 °C |
| COC1(OC)CCC2=C(CC(C)C3C2CCC2(C)CCCC32)C1 (centres undefined) | 57 °C |
| CC(=O)Oc1cccc2c1C13CCN(C)C(C2)C1CCC(=O)C3 (single isomer, unassigned; (-)) | 96 to 97 °C |
| CC1CCCN(c2nc(S(C)(=O)=O)nc(Cl)c2-c2c(F)cc(F)cc2F)O1 (centres undefined) | 160 to 162 °C |
| O=C(NO)C(=O)Nc1ccccc1 | 165 to 167 °C |
| CN(C)Cc1nc(C(=O)N(C)C)nn1-c1ccc(Cl)cc1C(=O)c1ccccc1F | 140 to 142 °C |
| CN1C(c2ccc(N3CCCCC3)cc2)=NC(C(F)(F)F)(C(F)(F)F)C1NC(=O)c1ccc(F)cc1 (centres undefined) | 123 to 124 °C |
| CC(C)C1=C(C#N)C(c2ccccc2Cl)c2c[nH]nc2N1 (centres undefined) | > 250 °C |
| Cc1cc(Cl)cc(C(=O)NCC2CC2)c1NC(=O)c1cc(Br)nn1-c1ncccc1Cl | 166 to 168 °C |
| CC12CC(F)C3C(CCC4=CC(=O)CCC43C)C1CCC2=O (centres undefined) | 162 to 164 °C |

| SMILES | melting point |
| --- | --- |
| Cc1c(N)cc2c(c1C)OC(C)(C)C2=O | 149 to 150 °C |
| COC(=O)C1=C(C)NC(C)=C(C(=O)OCC2CC2)C1c1cccc([N+](=O)[O-])c1 (centres undefined) | 160 to 163 °C |
| CN(C)C=Nc1[nH]nc(-c2cccc([N+](=O)[O-])c2)c1C#N | 221 to 225 °C |
| O=c1[nH]c2ccc(CCBr)cc2o1 | 148 to 151 °C |
| CC(=O)Nc1nc2c(nc(F)n2COCCOC(C)=O)c(=O)[nH]1 | 196 to 198 °C |
| CC(C)c1csc(NC(=O)OC(C)(C)C)c1C(=O)O | 205 to 206 °C |
| CS(=O)(=O)Oc1ccc(C(c2ccc(OS(C)(=O)=O)c([N+](=O)[O-])c2)(C(F)(F)F)C(F)(F)F)cc1[N+](=O)[O-] | 119 to 121 °C |
| O=[N+]([O-])c1ccc(C2OCc3ccc(CCl)cc3CO2)cc1 (centres undefined) | 138 to 140 °C |
| O=S1(=O)NCN(C2CC2)c2cc(Br)cc(C(F)(F)F)c21 | 200 to 201 °C |
| CCCCNC(=O)C(=O)NCCCCCO | 136 to 137 °C |
| O=c1[nH]cc(C(F)(F)F)cc1Br | 162 to 165 °C |
| COc1ccc(-c2c(N)oc3c(C(C)(C)C)cc(C(C)(C)C)cc23)cc1OC | 172 to 174 °C |
| Oc1c(Cl)cc(C2=NCCO2)cc1Cl | 189 to 191 °C |
| CN1CC(CCCl)Oc2ccc(Cl)cc2C1=S (centres undefined) | 102 to 104 °C |
| O=c1[nH]cc(C=CBr)c(=O)[nH]1 | > 320 °C |
| CC(C)C(NC(=O)Nc1ccc(C(=O)NCC(=O)O)cc1)C(=O)N1CCCC1C(=O)NC(C(=O)C(F)(F)F)C(C)C (stereo not drawn) ({Gly-4Abz-CO}-Val-Pro-Val-CF3; configuration not given here) | 98 to 128 °C |
| C[C@H]1CN(c2c(F)cc3c(=O)c(C(=O)O)cn(C4CC4)c3c2Br)C[C@H]1N (relative stereo) | 186 to 190 °C |
| CC(=O)Nc1ccc2c3c1c(=O)c(C(=O)O)cn3CCC2 | > 300 °C |

More lines, now with the values ahead:

| melting point | SMILES |
| --- | --- |
| 252 to 253 °C | CCOc1ccc(S(=O)(=O)N(CC(=O)NN=C2C(=O)Nc3ccc([N+](=O)[O-])cc32)c2ccccc2)cc1 |
| 105 to 106 °C | CCCN(CC)Cc1nc2cc(OC)c(OC)cc2c(-c2ccc(OC)c(OC)c2)c1C(=O)OCC |
| 87 to 88 °C | O=C(C=Cc1ccc2c(c1)OCO2)c1cccc(OCCCCCBr)c1 |
| 87 to 88 °C | CCCc1c(OCCCOc2ccc(C(=O)OCC)cc2F)ccc(C(C)=O)c1O |
| 83 to 84 °C | COCCNC(=O)c1cccc(-c2cccc3oc(Cc4ccc(F)c(F)c4)cc23)c1 |
| 216 to 220 °C | CSc1ccc(-c2c(Cl)ncn2-c2ccc(S(C)(=O)=O)cc2)cc1 |
| 202 to 207 °C | COC(=O)c1ccc(N=Cc2ccc(Cl)c(Cl)c2)cn1 |
| 271 to 276 °C | COc1cc2c(Nc3ccc(Sc4nccn4C)c(Cl)c3)c(C#N)cnc2cc1OCCCCl |
| 146 to 147 °C | COc1cc(C(=O)O)ccc1Cc1cn(C(C)C(=O)N(C)C)c2ccc(C(=O)NCC3CCCC3)cc12 (centres undefined) |
| 186 °C | COC(=O)C(=Cc1ccc(-c2cccc(N(C)C(=O)Nc3ccccc3)c2)cc1)OC |
| 161 to 164 °C | COc1cc(Nc2nccc(Nc3ccc(OCc4ccccc4)cc3)n2)cc(OC)c1OC |
| 160 °C | CCOC(=O)c1ccc(OCCCC2CCN(c3ccc(-c4ccc(F)cc4)nn3)CC2)cc1 |
| 235 to 237 °C | Nc1nc2cc(Cl)c(Cl)cc2nc1-c1cccs1 |
| 212 °C | CC(C)(C)OC(=O)C=Cc1ccc(-c2ccc3ncnc(Nc4ccc(OCc5cccc(F)c5)c(Cl)c4)c3c2)cc1 |
| 277 to 280 °C | C=C(C)C(=O)NNc1ccnc2c(NC(=O)c3c(Cl)cccc3Cl)cccc12 |
| 169 to 171 °C | Cc1cccc(Cl)c1NC(=O)N=C1NCCN1 |
| 138 to 139 °C | Cc1csc(C2=C(c3ccc(S(C)(=O)=O)cc3)CCC2)c1 |
| 115 to 120 °C | CCOC(=O)Cc1ccc2c(c1)sc1cc(N(C)C)ccc12 |
| 192 to 194 °C | COCCc1nc2c(N)nc3ccc(OCc4ccccc4)cc3c2n1C |
| 133 to 135 °C | CCOC(=O)c1ccc(-c2nc(COc3ccc(COc4nn(-c5ccccc5)cc4/C=C\c4csc(CC)n4)cc3OC)c(C)o2)o1 |
| 130 °C | Cn1c(C(F)(F)F)cc(C#N)c1-c1ccc(Cl)c(Cl)c1 |

| melting point | SMILES |
| --- | --- |
| 258 °C | O=C(Nc1nccs1)c1c(C(F)(F)F)nc2c(C(F)(F)F)cccc2c1O |
| 98 to 100 °C | COc1cc(Oc2cccc(C(F)(F)F)c2)nc(C(=O)NN=CCC#N)c1 |
| 108 to 110 °C | CCCCCCCCCCCCCCCCCCS(=O)c1cc2ccccc2c(N=Nc2ccc(OC)cc2)c1O (centres undefined) |
| 188 to 191 °C | O=C(Nc1cccc(C(F)(F)F)c1)c1ccccc1O |
| 199 to 201 °C | Cc1cc(Cl)cc2c(=O)oc(-c3cc(Cl)nn3-c3ncccc3Cl)nc12 |
| 101 to 102 °C | CC(=O)Nc1ccc(S(=O)(=O)Nc2nnc(CO)s2)cc1 |
| 91 to 92.5 °C | CN(C)CCC(=O)N1Cc2cccc3c2N(CC3)c2ccccc21 |
| 141 °C | CCN(CC)C(=O)Nc1ccc(Oc2ccc3sncc3c2)c(Cl)c1 |
| 172 to 174 °C | CCOC(=O)c1c(Cc2nc[nH]n2)nc2sc3cnccc3c2c1-c1ccc(OC)c(OC)c1 |
| 148 to 150 °C | CCOC(=O)C1=C(COCCNc2nccc(=O)[nH]2)NC(C)=C(C(=O)OC)C1c1ccccc1Cl (centres undefined) |
| 152 to 153 °C | COc1cccc(CC(=O)O)c1OCCCc1cn(-c2ccc(Br)cn2)nc1C(C)C |
| 185 to 186 °C | CC(C)(C)c1ccc(CCCO)cc1NC(=O)CC1c2ccccc2Oc2ccccc21 |
| 113 to 114 °C | COC(=O)NC(CCc1ccc(Cl)cc1)C(=O)O (centres undefined) |
| 167 to 169 °C | O=C(O)c1ccc(NCCCc2ccccc2)cn1 |
| 275 to 276 °C | CC(C)(C)C1=CC(=Nc2cc(C(=O)O)ccc2O)C=C(C(C)(C)C)C1=O |
| 161 to 164 °C | Cc1nc2c3c(ccc2n1C)CCC(c1ccccc1)O3 (centres undefined) |
| 43 to 44 °C | C[Si](C)(C)CCOC(=O)c1ccc(F)cc1N |
| 101 to 102 °C | COC(=O)C(=NOCF)c1ccccc1COc1ccccc1C |
| 114 to 117 °C | O=Cc1cc(CSc2c(Cl)cccc2Cl)ccc1O |
| 109 to 110 °C | O=C(O)[C@H](Cc1cccc(OC(F)(F)C(F)F)c1)[C@@H](O)c1ccc(Oc2ccccc2)cc1 (racemic) |
